{"source": "patent US7939639B2", "about": "“Functional role of adrenomedullin (AM) and the gene related product (PAMP) in human pathology and physiology” (The United States of America as represented by the …, priority 1995, dated 2011)", "key": {"RINm cells": {"system": "RINm cells", "assay": "125I-AM binding to RINm cells", "conditions": "0.2 nM per 5×10^5 cells", "text": "(§1) A similar mechanism has been described for amylin (R. A. Pittner et al., J. Cell. Biochem. 55S, 19 (1994))."}, "NCI-H1264": {"system": "NCI-H1264", "assay": "125I-AM binding to NCI-H1264 cells", "set-up": "species or system human", "conditions": "0.2 nM per 5×10^5 cells; NCI-H1264 positive control", "text": "as §1"}, "E. coli [1]": {"system": "E. coli", "assay": "Microdilutional timed kill assay, E. coli", "type": "cell-based, Escherichia coli", "conditions": "for growth inhibitory activity against E. coli, comparative: microdilution, 6 hours, FIG. 22", "method": "(§2) Inhibition of growth of E. coli was assessed in a microdilutional timed kill assay. (See FIG. 22) Bacteria and Candida albicans were grown overnight on trypticase soy agar (TSA) and Sobouraud dextrose agar (SDA) plates, respectively, were suspended into RPMI-1640 medium (Bio-Whittaker) and adjusted to a final concentration of 8×10^3 cfu/ml in […] in plastic microdilution trays. AM-related peptides, magainins, and albumin were added in equimolar concentrations ranging from 8 μM to 300 μM. Plates were incubated at 37° C. with gentle agitation over 24 hours. At 6 hr and 24 hr time points, 10 to […] aliquots from each well were quantitatively cultured by serial 100-fold dilutions onto TSA and SDA plates."}, "C. albicans": {"system": "C. albicans", "assay": "Micro-/macrodilutional assay, C. albicans", "type": "cell-based, Candida albicans", "method": "as §2, with “AM-related peptides, magainins, and albumin were added in equimolar concentrations ranging from 8 μM to 300 μM.” left out\n(§3) Data were compiled from six experiments. Macrodilution assays were performed in 12×75 mm borosilicate glass tubes. Organisms were grown and harvested, as described in Roilides, E., et al., J Infect Dis. 163:579 (1991), and adjusted to a final inoculum concentration of 8×10^3 cfu/ml in 400 μl. […] Tubes were incubated at 37° C. with gentle agitation over 24 hours. At 6 and 24 hour time points, 100 μl aliquots from each tube were quantitatively cultured by serial 100-fold dilutions onto TSA and SDA plates."}, "E. coli [2]": {"system": "E. coli", "assay": "Macrodilution assay, E. coli", "type": "cell-based, Escherichia coli", "conditions": "for antimicrobial activity, macrodilution, 6 hours: 6 hours incubation", "method": "as §3"}, "[3]": {"system": "E. coli, P. aeruginosa, C. albicans, S. aureus", "assay": "Antimicrobial dilution assays against bacterial and fungal pathogens", "type": "cell-based", "conditions": "microdilutional assay", "method": "In order to assess the antimicrobial activity of AM and its gene related peptides, both microdilution and macrodilution assays were performed against Escherichia coli (E. coli), Staphylococcus aureus (S. aureus), Pseudomonas aeruginosa (P. aeruginosa) and Candida albicans (C. albicans). A germination assay was also performed in order to further assess anti-candidal activity (Ghannoum, M. A. and Radwan, S. S., Candida Adherence to Epithelial Cells. CRC Press; Boca Raton, Fla. 1990 pp. 72-104).\nas §2\nThe antimicrobial activity of AM and PAMP was determined in a macrodilution assay after 6 hours of incubation of E. coli. […] Data were compiled from six experiments. Macrodilution assays were performed in 12×75 mm borosilicate glass tubes. Organisms were grown and harvested, as described in Roilides, E., et al., J Infect Dis. 163:579 (1991), and adjusted to a final inoculum concentration of 8×10^3 cfu/ml in 400 μl. AM-related peptides, magainins, and albumin were added in equimolar concentrations ranging from 8 μM to 300 μM. Tubes were incubated at 37° C. with gentle agitation over 24 hours. At 6 and 24 hour time points, 100 μl aliquots from each tube were quantitatively cultured by serial 100-fold dilutions onto TSA and SDA plates."}, "AM receptors": {"system": "AM receptors", "assay": "125I-AM receptor binding, MCF-7", "set-up": "species or system human", "conditions": "MCF-7 as representative cancer line", "method": "j. Receptor Binding: Receptor binding analysis were performed as previously described (Moody, T. W., et al., Proc. Natl. Acad. Sci. U.S.A. 90:4345-4349 (1993)). Briefly, cells (5×10^4) were placed in 24-well plates coated with fibronectin (20 μg). When a monolayer is formed, the cells were washed 4 times in TIS buffer followed by incubation with receptor binding medium (TIS plus 1% BSA and 1 mg/ml bacitracin). […] After washing the cells 4 times in receptor binding buffer at 4° C., they were dissolved in 0.2 N NaOH and counted on a gamma counter."}, "AM receptor": {"system": "AM receptor", "assay": "cAMP assay (RIA), MCF-7", "type": "cell-based, human", "conditions": "MCF-7", "method": "k. cAMP Assays: Cyclic AMP was assayed by RIA using a kit obtained from New England Nuclear (Boston, Mass.). […] The supernatants were tested for cAMP using the RIA kit following the manufacturer's instructions."}, "P. aeruginosa": {"system": "P. aeruginosa", "assay": "Micro-/macrodilution timed kill assay, P. aeruginosa", "type": "cell-based, Pseudomonas aeruginosa", "conditions": "24 hours exposure compared with 6 hours incubation", "method": "as §2, with “AM-related peptides, magainins, and albumin were added in equimolar concentrations ranging from 8 μM to 300 μM.” left out\nas §3"}, "S. aureus": {"system": "S. aureus", "assay": "Micro-/macrodilutional assays, S. aureus", "type": "cell-based, Staphylococcus aureus", "conditions": "microdilutional or macrodilutional assays", "method": "as §2, with “AM-related peptides, magainins, and albumin were added in equimolar concentrations ranging from 8 μM to 300 μM.” left out\nas §3"}, "Isoelectric point": {"assay": "Isoelectric point", "type": "physicochemical"}, "rat mast cells": {"system": "rat mast cells", "conditions": "compared with magainin-2 / AM"}}, "note": "Entries after “also recorded” stand apart in the source; their conditions may differ. Like-named read-outs stand apart in the source and are kept apart here. Ends that are not written are not given here.", "data": [{"substance": "^125I-AM: iodinated AM ligand (Phoenix Pharmaceuticals)", "values": [{"measurement": "binding of 125I-AM", "setting": "RINm cells", "result": 25, "unit": "cpm"}, {"measurement": "binding of 125I-AM", "setting": "NCI-H1264", "result": 2265, "unit": "cpm"}]}, {"substance": "Magainin [reference compound]", "values": [{"measurement": "growth inhibitory activity against E. coli, comparative", "setting": "E. coli [1]", "result": "greater inhibitory activity"}, {"measurement": "potency against C. albicans, comparative", "setting": "C. albicans", "result": "more potent than AM and PAMP"}, {"measurement": "antimicrobial activity, macrodilution, 6 hours", "setting": "E. coli [2]; E. coli", "result": "moderate activity"}, {"measurement": "antimicrobial activity, macrodilution, 24 hours", "setting": "E. coli [2]; E. coli, 24 hours incubation", "result": "significantly greater in antimicrobial activity than either AM or PAMP; also recorded: more potent than either AM"}, {"measurement": "optical clarity of bacterial suspension", "setting": "E. coli [2]; macrodilution", "result": "optically clear suspension of bacteria"}]}, {"substance": "Y-G-G-H-Q-I-Y-Q-F-T-D-K-D-NH2 (YGGHQIYQFTDKD-NH2) [PO71, ID; NO]", "values": [{"measurement": "activity against these pathogens", "setting": "[3]", "result": "little or no activity"}]}, {"substance": "ARLDVASEFRKKWNKWALSR-NH2 [PAMP-20, ARLDVASEFRKKWNKWALSR-NH2]", "values": [{"measurement": "competition for 125I-AM binding", "setting": "AM receptors", "result": "not competitively blocked"}, {"measurement": "effect on cAMP", "setting": "AM receptor", "result": "no effect"}, {"measurement": "activity against E. coli", "setting": "E. coli [1]; after 6 hours of incubation", "result": "activity"}, {"measurement": "growth inhibitory activity against E. coli, comparative", "setting": "E. coli [1]", "result": "higher growth inhibitory activity than albumin"}, {"measurement": "antimicrobial activity against P. aeruginosa, 24 hours versus 6 hours", "setting": "P. aeruginosa", "result": "greater antimicrobial activity"}, {"measurement": "antimicrobial effect against C. albicans", "setting": "C. albicans", "result": "79.7%±2.4"}, {"measurement": "activity against C. albicans", "setting": "C. albicans; after 6 hours of incubation", "result": "activity"}, {"measurement": "growth suppressive activity against S. aureus", "setting": "S. aureus", "result": "ineffective; also recorded: no apparent growth suppressive activity"}, {"measurement": "antimicrobial activity, macrodilution, 6 hours", "setting": "E. coli [2]; E. coli", "result": "greater activity"}, {"measurement": "isoelectric point", "setting": "Isoelectric point", "result": 10.1}, {"measurement": "isoelectric point", "setting": "Isoelectric point; listed as PAMP", "result": 11.1}, {"measurement": "relative potency in inducing histamine release", "setting": "rat mast cells", "result": "twenty times more potent"}]}, {"substance": "Y-Y-W-N-K-W-A-L-S-R-NH2 (YYWNKWALSR-NH2) [PO70, ID; NO]", "values": [{"measurement": "activity against these pathogens", "setting": "[3]", "result": "little or no activity"}]}, {"substance": "TVQKLAHQIYQFTDKDKDNVAPRSKISPQGY-NH2 [PO72]", "values": [{"measurement": "competition for 125I-AM binding", "setting": "AM receptors", "result": "not competitively blocked"}, {"measurement": "effect on cAMP", "setting": "AM receptor", "result": "no effect"}, {"measurement": "activity against these pathogens", "setting": "[3]", "result": "little or no activity"}]}]}
